Measured values published in article PMC2765639 (PLoS Neglected Tropical Diseases, 2009).
Like-named read-outs stand apart in the source and are kept apart here.

Key:
A549 = test: Mammalian cell line specificity assay (alamar blue); format: cell-based, human; settings: Table S1; PMLSC library samples; read-out: EC50 Ave ± SD, A549
Experimental: Mammalian cells were cultured and maintained according to ATCC specifications (ATCC, Manassas, VA). Cell line drug susceptibility assays were performed in final volumes of 25 µL using our previously described 384-well microtiter plate format,[39]. […] Test and control compounds were added to individual wells as described above. Vehicle and positive controls were 1% DMSO and 10% DMSO, respectively (final well concentrations). Assay plates were incubated for 44–46 h at 37°C in the presence of 5% CO2 and growth inhibitory effects were determined as described above. Five µL of alamar blue reagent was added to each well and incubated for 2–4 h. Data were captured as described above.

L. major promastigotes = test: L. major promastigote drug susceptibility assay (alamar blue, 384-well); format: cell-based, Leishmania major; settings: for primary hit (≥50% inhibition of signal readout): single concentration 10 µM, LOPAC, UP-CMLD DP validation set or PMLSC library
Experimental: Promastigotes were grown in vented T75 tissue culture flasks and maintained at 28°C. Promastigote cultures were initiated at 10^5 parasites per mL and subcultured every 3–4 days. L. major promastigote counts were performed in duplicate using a hemocytometer and particle counter (Beckman Coulter, Fullerton, CA). For HTS assays, L. major promastigote cultures were harvested during exponential growth phase (∼2.0–3.0×10^7 parasites/mL) and were not maintained past passage 20.
The final test compound concentration was 10 µM with a constant DMSO concentration of 1% in each assay well.
The L. major promastigote drug susceptibility assay was performed in a final volume of 25 µL using our previously described 384-well microtiter plate format,[39]. For automated HTS procedures, L. major promastigotes (5,000 parasites/22 µL) in complete growth medium were seeded into each well of the microtiter plates using a MAPC2 bulk dispenser (Titertek, Huntsville, AL). Test and control compounds (3 µL) were added to individual wells using a Velocity 11 V-prep (Menlo Park, CA) liquid handling system, equipped with a 384-well dispensing head, followed by centrifugation at 50 g for 1 min. […] Assay plates were allowed to incubate for 44 h at 28°C in the presence of 5% CO2. Five µL of alamar blue reagent were added to each assay plate well and incubated for 4 h at 28°C with 5% CO2. Data were captured on a Molecular Devices SpectraMax M5 (excitation560; emission590). Individual assay plate Z-factors were derived from the vehicle and positive controls, and data from plates were used only if Z-factors were >0.5 [50].
The assays were performed in duplicate with a final 10-point concentration range spanning 0.01–5.00 µM.

[1] = Table S1, PMLSC library samples, 10-point 0.01–5.00 µM, read-out: EC50 Ave ± SD, Lm
[2] = Leishmania major, assay optimization, 384-well format, read-out: EC50, L. major promastigotes, known leishmanicidals

Compound	EC50 (A549)	EC50 (L. major promastigotes; [1])	primary hit (≥50% inhibition of signal readout) (L. major promastigotes)	EC50 (L. major promastigotes; [2])	EC50 (L. major promastigotes; assay optimization, 384-well format, read-out: EC50, L. major promastigotes, known leishmanicidals)
CN(C)C(=S)SSC(=S)N(C)C [CID 5455]	0.75 ± 0.002 µM	0.098 ± 0.012 µM			
Nc1cccc2nc3ccccc3cc12 [CID 11352]	4.7 ± 0.311 µM	0.635 ± 0.026 µM			
Nc1nsc2ccccc12 [CID 89966]	> 5 µM	0.392 ± 0.04 µM			
O=[N+]([O-])c1cc(-c2nnc(C34CC5CC(CC(C5)C3)C4)o2)cc([N+](=O)[O-])c1 [CID 380438]	> 5 µM	0.117 ± 0.022 µM			
CN(C)C(=O)c1ccc[n+](CC(=O)Nc2ccc(Cl)cc2)c1 [CID 422270]	2.92 ± 0.32 µM	0.289 ± 0.044 µM			
Cc1nc2c(=O)n(C)c(=O)nc-2n(C)n1 [CID 460747]	0.158 ± 0.018 µM	0.202 ± 0.011 µM			
COc1ccc2cc3[n+](cc2c1OC)CCc1cc2c(cc1-3)OCO2 [CID 629413]	> 5 µM	0.379 ± 0.077 µM			
COc1ccc2c3c(cccc13)NN=C2C [CID 644992]	> 5 µM	0.255 ± 0.021 µM			
Cc1nnc(Nc2ccccn2)c2ccccc12 [CID 645317]	> 5 µM	0.723 ± 0.024 µM			
[O-][N+]1=c2ccc(Nc3ccccc3)cc2=NC12CCCCC2 [CID 657546]	> 5 µM	0.845 ± 0.136 µM			
Cc1c(Cl)sn(-c2ccc(Cl)cc2)c1=O [CID 759209]	2.58 ± 0.185 µM	0.545 ± 0.118 µM			
COc1ccc(S(=O)(=O)Nc2ccc(O)c3ccccc23)cc1 [CID 871185]	> 5 µM	0.287 ± 0.145 µM			
O=C(Nc1ccc(Cl)cn1)c1ccc([N+](=O)[O-])o1 [CID 952234]	4.08 ± 0.352 µM	0.205 ± 0.021 µM			
O=c1c(Cl)nc2cc(Cl)ccc2n1CCNc1ncc(C(F)(F)F)cc1Cl [CID 1471937]	4.31 ± 0.54 µM	0.513 ± 0.052 µM			
COc1ccc(NC(=O)/C(Cl)=C(/Cl)[S+]([O-])Cc2ccccc2Cl)cn1 (stereo not shown) [CID 1475345]	0.955 ± 0.025 µM	0.242 ± 0.029 µM			
Cc1cc(C(=O)CCl)c(C)n1Cc1ccco1 [CID 1537038]	> 5 µM	0.784 ± 0.036 µM			
CCOC(=O)c1c2c(n(C)c1C)C(=O)C(=O)c1ccc(Br)cc1-2 [CID 1736381]	0.613 ± 0.109 µM	0.087 ± 0.021 µM			
CCOC(=O)C(=Cc1cc(=O)c(OC)co1)C(=O)OCC [CID 1811924]	> 5 µM	0.166 ± 0.009 µM			
COc1ccccc1-n1cnc2c(c1=O)c1nc3ccccc3nc1n2-c1ccc(C)c(C)c1 [CID 1987332]	> 5 µM	0.085 ± 0.005 µM			
Fc1cccc(-c2nnn3c2nc(Cl)c2ccccc23)c1 [CID 2137463]	> 5 µM	0.499 ± 0.135 µM			
O=S(=O)(CCSc1nc2ccccc2s1)c1nc2ccccc2s1 [CID 2194030]	> 5 µM	0.718 ± 0.086 µM			
CC(C)(C)c1ccc(-n2nc(C#N)c(Cl)cc2=O)cc1 [CID 2766929]	3.55 ± 0.582 µM	0.767 ± 0.16 µM			
CCCCCCCCCCCCCCCCn1cc[n+](C)c1 [CID 2846928]	1.64 ± 0.059 µM	0.035 ± 0.001 µM			
CCCOC(=O)CSC1=C(C#N)C(c2ccccc2Cl)CC(=O)N1 (stereo not shown) [CID 2855568]	> 5 µM	0.122 ± 0.012 µM			
CCc1ccc(NSc2ccccc2[N+](=O)[O-])cc1 [CID 2856077]	> 5 µM	0.751 ± 0.11 µM			
COCCCNCCCCOc1ccc(Br)cc1Cl [CID 2923184]	> 5 µM	0.06 ± 0.0001 µM			

Compound	EC50 (A549)	EC50 (L. major promastigotes; [1])	primary hit (≥50% inhibition of signal readout) (L. major promastigotes)	EC50 (L. major promastigotes; [2])	EC50 (L. major promastigotes; assay optimization, 384-well format, read-out: EC50, L. major promastigotes, known leishmanicidals)
O=C1CC(c2ccccc2Br)c2cc3c(cc2N1)CCC3 (stereo not shown) [CID 2937831]	> 5 µM	0.255 ± 0.048 µM			
COc1cc(CNCc2cccs2)ccc1OCc1ccccc1 [CID 2964134]	> 5 µM	0.164 ± 0.042 µM			
COc1ccc(C2=NCC(CSc3nnc(-c4ccc5c(c4)OCO5)o3)S2)cc1 (stereo not shown) [CID 2999476]	> 5 µM	0.187 ± 0.026 µM			
O=[N+]([O-])c1ccc(NNC(=S)Nc2ccc(F)cc2)cc1 [CID 3127155]	> 5 µM	0.452 ± 0.074 µM			
CCCc1nc2c(=O)n(C)c(=O)nc-2n(C)n1 [CID 3164059]	1.06 ± 0.156 µM	0.218 ± 0.054 µM			
COC(=O)c1cc2ccsc2n1Cc1nc(-c2ccc(OC)cc2)oc1C [CID 3236501]	> 5 µM	0.105 ± 0.01 µM			
COC(=O)CNc1nc(-c2ccccc2F)nc2ccccc12 [CID 3237155]	> 5 µM	0.743 ± 0.062 µM			
O=C(NCC(c1cccnc1)N1CCN(c2ccc(F)cc2)CC1)Oc1ccccc1 (stereo not shown) [CID 3242548]	> 5 µM	0.111 ± 0.01 µM			
CCC(C)(c1nnnn1-c1c(C)cccc1C)N(N=O)c1ccccc1Cl (stereo not shown) [CID 3521510]	> 5 µM	0.326 ± 0.04 µM			
N#CC(c1ccc(Cl)cc1)c1ccc2c(C(F)(F)F)cc(C(F)(F)F)nc2n1 (stereo not shown) [CID 3564202]	2.11 ± 0.077 µM	0.565 ± 0.035 µM			
COC(=O)C1CN(C#N)N(c2ccc(Cl)cc2)C12c1ccccc1-c1ccccc12 (stereo not shown) [CID 3609942]	2.75 ± 0.073 µM	0.073 ± 0.013 µM			
CN(C)c1cc(NN=Cc2ccc(Cl)cc2)nc(N(C)C)n1 [CID 3769434]	> 5 µM	0.504 ± 0.066 µM			
Cc1ccccc1-n1ncc2c([N+](=O)[O-])cc([N+](=O)[O-])cc21 [CID 3932660]	> 5 µM	0.061 ± 0.004 µM			
O=C(c1cccnc1)N(c1cc2sc(=O)oc2c2ccccc12)S(=O)(=O)c1ccccc1 [CID 3980962]	> 5 µM	0.192 ± 0.002 µM			
Clc1ccccc1C(c1ccccc1)(c1ccccc1)n1ccnc1 [Clotrimazole, reference compound]			primary hits		
COc1ccc2cc3[n+](cc2c1OC)CCc1cc2c(cc1-3)OCO2 [berberine, reference compound]			primary hits		
CC(=O)N1CCN(c2ccc(OCC3COC(Cn4ccnc4)(c4ccc(Cl)cc4Cl)O3)cc2)CC1 (stereo not shown) [ketoconazole, reference compound]			primary hits		
COc1c(C)c2c(c(O)c1C/C=C(\C)CCC(=O)O)C(=O)OC2 [mycophenolic acid, reference compound]			primary hits		
O=C(Nc1ccc([N+](=O)[O-])cc1Cl)c1cc(Cl)ccc1O [niclosamide, reference compound]			primary hits		
NC[C@@H]1O[C@H](O[C@H]2[C@@H](O)[C@H](O[C@@H]3[C@@H](O)[C@H](N)C[C@H](N)[C@H]3O[C@H]3O[C@H](CO)[C@@H](O)[C@H](O)[C@H]3N)O[C@@H]2CO)[C@H](N)[C@@H](O)[C@@H]1O [paromomycin, reference compound]				19.7 ± 0.6 µM	
N=C(N)c1ccc(OCCCCCOc2ccc(C(=N)N)cc2)cc1 [pentamidine, reference compound]				0.36 ± 0.02 µM	
CCN(CC)CCCC(C)Nc1c2ccc(Cl)cc2nc2ccc(OC)cc12 (stereo not shown) [quinacrine, reference compound]			primary hits		
O=C(O)[C@@H]1[O][Sb](=[O])([O][Sb]2(=[O])[O][C@H]([C@H](O)CO)[C@H](O)[C@H](C(=O)O)[O]2)[O][C@H]([C@H](O)CO)[C@@H]1O.[Na+].[Na+].[Na+] (stereo partly shown) [sodium stibogluconate, reference compound]					> 100 µM
CC/C(=C(\c1ccccc1)c1ccc(OCCN(C)C)cc1)c1ccccc1 [tamoxifen, reference compound]			primary hits		
ivermectin [reference compound]			primary hits		
